Data on 26 compounds can be found in US20070213339A1 (Bayer Pharmaceuticals Corporation, priority 2004, published 2007).

This assay relates to Colo205 human colon carcinoma cell line. The experiment in a line: In vitro tumor cell proliferation assay (MTS, CellTiter 96 Aqueous One Solution). It is filed as cell-based. Particulars: COLO 205, Colo205 cells, 72 hours compound exposure, MTS absorbance at 490 nm, read-out: IC50 (concentration of test compound required to inhibit proliferation of 50% of the cells). The procedure, abridged:
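Proliferation measured as MTS tetrazolium reduction (490 nm) after 72 h compound exposure at 37 °C. Cells plated at 2000 per well in serum-supplemented RPMI-1640; duplicate 5-point dilutions topping out at 10-20 μM. Percent inhibition versus untreated and cell-free wells, IC50 derived by linear regression.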
For the compound `COc1c(N2CCN(c3ccccc3[N+](=O)[O-])CC2)c(F)cc2c(=O)c(C(=O)O)cn(-c3ccc(CN4CCCCC4)cc3)c12` [Example 91, 6-fluoro-8-methoxy-7-[4-(2-nitrophenyl)-piperazin-1-yl]-4-oxo-1-[4-(piperidin-1-ylmethyl)phenyl]-1,4-dihydroquinoline-3-carboxylic acid], the IC50 was 500 to 2000 nM.
Regarding `COc1c(N2CCN(c3ccccn3)CC2)c(F)cc2c(=O)c(C(=O)O)cn(-c3ccc(CN(C)C)cc3)c12` [Example 92, 1-{4-[(dimethylamino)methyl]phenyl}-6-fluoro-8-methoxy-4-oxo-7-(4-pyridin-2-ylpiperazin-1-yl)-1,4-dihydroquinoline-3-carboxylic acid], the IC50 was less than 500 nM.
For `COc1c(N2CCN(c3ccc(F)cc3)CC2)c(F)cc2c(=O)c(C(=O)O)cn(-c3ccc(CN(C)C)cc3)c12` [Example 93, 1-{4-[(dimethylamino)methyl]phenyl}-6-fluoro-7-[4-(4-fluorophenyl)piperazin-1-yl]-8-methoxy-4-oxo-1,4-dihydroquinoline-3-carboxylic acid], the IC50 was less than 500 nM.
Turning to `COc1c(N2CCN(c3ccccc3F)CC2)c(F)cc2c(=O)c(C(=O)O)cn(-c3ccc(CN(C)C)cc3)c12` [Example 94, 1-{4-[(dimethylamino)methyl]phenyl}-6-fluoro-7-[4-(2-fluorophenyl)piperazin-1-yl]-8-methoxy-4-oxo-1,4-dihydroquinoline-3-carboxylic acid], the IC50 lay within 500 to 2000 nM.
Regarding `COc1c(N2CCN(c3ccccc3C#N)CC2)c(F)cc2c(=O)c(C(=O)O)cn(-c3ccc(CN(C)C)cc3)c12` [Example 95, 7-[4-(2-cyanophenyl)piperazin-1-yl]-1-{4-[(dimethylamino)methyl]phenyl}-6-fluoro-8-methoxy-4-oxo-1,4-dihydroquinoline-3-carboxylic acid], the IC50 was 500 to 2000 nM.
For the compound `COc1c(N2CCN(c3ncccn3)CC2)c(F)cc2c(=O)c(C(=O)O)cn(-c3ccc(CN(C)C)cc3)c12` [Example 96, 1-{4-[(dimethylamino)methyl]phenyl}-6-fluoro-8-methoxy-4-oxo-7-(4-pyrimidin-2-ylpiperazin-1-yl)-1,4-dihydroquinoline-3-carboxylic acid], the IC50 was less than 500 nM.
Consider `COc1c(N2CCN(c3ccccc3)CC2)c(F)cc2c(=O)c(C(=O)O)cn(-c3ccc(CN(C)C)cc3)c12` [Example 97, 1-{4-[(dimethylamino)methyl]phenyl}-6-fluoro-8-methoxy-4-oxo-7-(4-phenylpiperazin-1-yl)-1,4-dihydroquinoline-3-carboxylic acid], for which the IC50 was less than 500 nM.
Take `COc1c(N2CCN(c3cccc(Cl)c3)CC2)c(F)cc2c(=O)c(C(=O)O)cn(-c3ccc(CN(C)C)cc3)c12` [Example 98, 7-[4-(3-chlorophenyl)piperazin-1-yl]-1-{4-[(dimethylamino)methyl]phenyl}-6-fluoro-8-methoxy-4-oxo-1,4-dihydroquinoline-3-carboxylic acid]: the IC50 is less than 500 nM.
In the case of `COc1ccccc1N1CCN(c2c(F)cc3c(=O)c(C(=O)O)cn(-c4ccc(CN(C)C)cc4)c3c2OC)CC1` [Example 99, 1-{4-[(dimethylamino)methyl]phenyl}-6-fluoro-8-methoxy-7-[4-(2-methoxyphenyl)piperazin-1-yl]-4-oxo-1,4-dihydroquinoline-3-carboxylic acid], the IC50 was in the range of 500 to 2000 nM.
`COc1c(N2CCN(c3ccc(C(F)(F)F)cc3)CC2)c(F)cc2c(=O)c(C(=O)O)cn(-c3ccc(CN(C)C)cc3)c12` [Example 100, 1-{4-[(dimethylamino)methyl]phenyl}-6-fluoro-8-methoxy-4-oxo-7-{4-[4-(trifluoromethyl)phenyl]piperazin-1-yl}-1,4-dihydroquinoline-3-carboxylic acid]: the IC50 was 2000 to 20000 nM.
For the compound `COc1c(N2CCN(c3ccc(F)cc3F)CC2)c(F)cc2c(=O)c(C(=O)O)cn(-c3ccc(CN(C)C)cc3)c12` [Example 101, 7-[4-(2,4-difluorophenyl)piperazin-1-yl]-1-{4-[(dimethylamino)methyl]phenyl}-6-fluoro-8-methoxy-4-oxo-1,4-dihydroquinoline-3-carboxylic acid], the IC50 was in the range of 500 to 2000 nM.
Regarding `COc1c(N2CCN(c3ccc(C#N)cc3)CC2)c(F)cc2c(=O)c(C(=O)O)cn(-c3ccc(CN(C)C)cc3)c12` [Example 102, 7-[4-(4-cyanophenyl)piperazin-1-yl]-1-{4-[(dimethylamino)methyl]phenyl}-6-fluoro-8-methoxy-4-oxo-1,4-dihydroquinoline-3-carboxylic acid], the IC50 was less than 500 nM.
As to `COc1c(N2CCN(c3ccc(C(C)=O)cc3)CC2)c(F)cc2c(=O)c(C(=O)O)cn(-c3ccc(CN(C)C)cc3)c12` [Example 103, 7-[4-(4-acetylphenyl)piperazin-1-yl]-1-{4-[(dimethylamino)methyl]phenyl}-6-fluoro-8-methoxy-4-oxo-1,4-dihydroquinoline-3-carboxylic acid], the IC50 lay within 500 to 2000 nM.
The value for `COc1c(N2CCN(c3ccccc3[N+](=O)[O-])CC2)c(F)cc2c(=O)c(C(=O)O)cn(-c3ccc(CN(C)C)cc3)c12` [Example 104, 1-{4-[(dimethylamino)methyl]phenyl}-6-fluoro-8-methoxy-7-[4-(2-nitrophenyl)piperazin-1-yl]-4-oxo-1,4-dihydroquinoline-3-carboxylic acid] was 2000 to 20000 nM; that for `CCN(CC)Cc1ccc(-n2cc(C(=O)O)c(=O)c3cc(F)c(N4CCN(c5ccc(F)cc5)CC4)c(OC)c32)cc1` [Example 105, 1-{4-[(diethylamino)methyl]phenyl}-6-fluoro-7-[4-(4-fluorophenyl)piperazin-1-yl]-8-methoxy-4-oxo-1,4-dihydroquinoline-3-carboxylic acid] was less than 500 nM; that for `CCN(CC)Cc1ccc(-n2cc(C(=O)O)c(=O)c3cc(F)c(N4CCN(c5ncccn5)CC4)c(OC)c32)cc1` [Example 106, 1-{4-[(diethylamino)methyl]phenyl}-6-fluoro-8-methoxy-4-oxo-7-(4-pyrimidin-2-ylpiperazin-1-yl)-1,4-dihydroquinoline-3-carboxylic acid] was less than 500 nM.
`CCN(CC)Cc1ccc(-n2cc(C(=O)O)c(=O)c3cc(F)c(N4CCN(c5ccccc5[N+](=O)[O-])CC4)c(OC)c32)cc1` [Example 107, 1-{4-[(diethylamino)methyl]phenyl}-6-fluoro-8-methoxy-7-[4-(2-nitrophenyl)piperazin-1-yl]-4-oxo-1,4-dihydroquinoline-3-carboxylic acid]: the IC50 fell in the range of 500 to 2000 nM.
For `CCN(CC)Cc1ccc(-n2cc(C(=O)O)c(=O)c3cc(F)c(N4CCN(c5ccc(C#N)cc5)CC4)c(OC)c32)cc1` [Example 108, 7-[4-(4-cyanophenyl)piperazin-1-yl]-1-{4-[(diethylamino)methyl]phenyl}-6-fluoro-8-methoxy-4-oxo-1,4-dihydroquinoline-3-carboxylic acid], the IC50 is less than 500 nM.
Turning to `CCN(CC)Cc1ccc(-n2cc(C(=O)O)c(=O)c3cc(F)c(N4CCN(c5ccccc5Cl)CC4)c(OC)c32)cc1` [Example 109, 7-[4-(2-chlorophenyl)piperazin-1-yl]-1-{4-[(diethylamino)methyl]phenyl}-6-fluoro-8-methoxy-4-oxo-1,4-dihydroquinoline-3-carboxylic acid], the IC50 is 500 to 2000 nM.
On to `CCN(CC)Cc1ccc(-n2cc(C(=O)O)c(=O)c3cc(F)c(N4CCN(c5ccccc5OC)CC4)c(OC)c32)cc1` [Example 110, 1-{4-[(diethylamino)methyl]phenyl}-6-fluoro-8-methoxy-7-[4-(2-methoxyphenyl)piperazin-1-yl]-4-oxo-1,4-dihydroquinoline-3-carboxylic acid], for which the IC50 is less than 500 nM.
In the case of `CCN(CC)Cc1ccc(-n2cc(C(=O)O)c(=O)c3cc(F)c(N4CCN(c5ccc(F)cc5F)CC4)c(OC)c32)cc1` [Example 111, 1-{4-[(diethylamino)methyl]phenyl}-7-[4-(2,4-difluorophenyl)piperazin-1-yl]-6-fluoro-8-methoxy-4-oxo-1,4-dihydroquinoline-3-carboxylic acid], the IC50 is 500 to 2000 nM.
Turning to `CCN(CC)Cc1ccc(-n2cc(C(=O)O)c(=O)c3cc(F)c(N4CCN(c5ccc(C(F)(F)F)cc5)CC4)c(OC)c32)cc1` [Example 112, 1-{4-[(diethylamino)methyl]phenyl}-6-fluoro-8-methoxy-4-oxo-7-{4-[4-(trifluoromethyl)phenyl]piperazin-1-yl}-1,4-dihydroquinoline-3-carboxylic acid], the IC50 fell in the range of 2000 to 20000 nM.
`CCN(CC)Cc1ccc(-n2cc(C(=O)O)c(=O)c3cc(F)c(N4CCN(c5ncccc5C#N)CC4)c(OC)c32)cc1` [Example 113, 7-[4-(3-cyanopyridin-2-yl)piperazin-1-yl]-1-{4-[(diethylamino)methyl]phenyl}-6-fluoro-8-methoxy-4-oxo-1,4-dihydroquinoline-3-carboxylic acid]: the IC50 was less than 500 nM.
For `CCN(CC)Cc1ccc(-n2cc(C(=O)O)c(=O)c3cc(F)c(N4CCN(c5ccccc5F)CC4)c(OC)c32)cc1` [Example 114, 1-{4-[(diethylamino)methyl]phenyl}-6-fluoro-7-[4-(2-fluorophenyl)piperazin-1-yl]-8-methoxy-4-oxo-1,4-dihydroquinoline-3-carboxylic acid], the IC50 was less than 500 nM.
For `CCN(CC)Cc1ccc(-n2cc(C(=O)O)c(=O)c3cc(F)c(N4CCN(c5cccc(Cl)c5)CC4)c(OC)c32)cc1` [Example 115, 7-[4-(3-chlorophenyl)piperazin-1-yl]-1-{4-[(diethylamino)methyl]phenyl}-6-fluoro-8-methoxy-4-oxo-1,4-dihydroquinoline-3-carboxylic acid], the IC50 was less than 500 nM.
As for `CCN(CC)Cc1ccc(-n2cc(C(=O)O)c(=O)c3cc(F)c(N4CCN(c5ccc(C(C)=O)cc5)CC4)c(OC)c32)cc1` [Example 116, 7-[4-(4-acetylphenyl)piperazin-1-yl]-1-{4-[(diethylamino)methyl]phenyl}-6-fluoro-8-methoxy-4-oxo-1,4-dihydroquinoline-3-carboxylic acid], the IC50 was less than 500 nM.
